Test [1] concerns Jurkat cells. Description: Cellular uptake assay by flow cytometry. In kind it is cell-based. As to conditions: for Mean fluorescence intensity: Jurkat cells. As to the method: All apparatuses were sterilized by autoclave sterilizer, and the experimental surfaces were wiped with 70% ethanol. All operations were performed in a laminar flow hood. The number of cells was determined by a hemacytometer. There were 9 squares with 1.0 mm^2 area and 0.1 mm depth in the hemacytometer. The number of cells in the four corner squares was counted and averaged. The average was multiplied by 10^4 to obtain the number of cells in a 1 mL suspension. The cellular uptake experiments were performed using 8×10^5 cells. […] The cells were then washed with PBS (2 g/L KCl, 2 g/L KH2PO4, 80 g/L NaCl, 11.5 g/L Na2PO4) (2×400 μL) to remove the fetal bovine serum which might interfere with the proteolytic activity of trypsin. The cells were then incubated with 0.05% trypsin/EDTA in PBS for 5 minutes to remove the peptides which adhered to the cell surface rather than entry to the cell. The cells were washed with PBS (2×400 μL). The cells were then resuspended in 500λ PBS and transferred into the flow tube. The cells were terminated by adding Triton-X 100 to give the dead control group. Propidium iodide (PI) was added to all samples to stain the dead cells but should not stain the live cells. Fluorescence analysis for the Jurkat cells was performed with a flow cytometer (FACScan, Becton Dickinson Bioscience). The voltage of the photomultiplier tube for forward scatter, side scatter and propidium iodide was set to 270, 470, and 350, respectively. Live cells containing appropriate forward scatter and side scatter values were selected and gated as the P1 region for normal and live cells in the live control group. The minimum propidium iodide fluorescence intensity for the dead cells treated with propidium iodide in the P1 region was set as the threshold value for dead cells. In other words, cells with propidium iodide fluorescence below the threshold value would be deemed live cells. The fluorescence of 6-carboxyfluorescein was considered when the cell morphology was in the P1 region and the propidium iodide fluorescence intensity was lower than the threshold value. The 6-carboxyfluorescein fluorescence intensity was acquired for 10,000 events at room temperature. The data presented are the mean fluorescence intensity for the 10,000 cells. Each experiment was independently repeated at least three times.
Cellular uptake experiments were performed on Jurkat cells, because these cells belonged to a CD4+ helper T cell cancer cell line which was the target of HIV. Jurkat cells were incubated separately with various concentration (7, 30, 60, 120 μM) of Flu-XaaTat for 15 minutes at 37° C. in the presence of fetal bovine serum, and then treated with trypsin to remove cell-surface bound peptide.

Test [2] has as its system Jurkat cells. Description: Fluorescence microscope of live Jurkat cells. As to conditions: 37° C.; for Cellular uptake seen in fluorescence microscopy images: 7 μM peptide, 15 minutes, fetal bovine serum, trypsin 5 minutes, FIG. 1; for Cellular uptake seen in fluorescence microscope images: 30 μM peptide, 5% CO2, 15 minutes, trypsinized 10 minutes, FIG. 7. In kind it is cell-based. The method, then:
[…] After incubation, the suspension was centrifuged at 2200 rpm. The cells were washed with phosphate buffered saline (137 mM NaCl, 2.7 mM KCl, 10 mM sodium phosphate dibasic, 2 mM potassium phosphate monobasic, pH 7.4) twice to remove extracellular peptide. […] Finally, cells were resuspended in 500 μL PBS containing 1 μg/mL propidium iodide. The cells were then examined by a fluorescence microscope (Olympus IX71) (492/517 nm; excitation/observation).

For the next test, the target named is HIV TAR RNA. In words: Gel shift assay (EMSA) with fluorescein-labeled TAR RNA in the presence of poly(dI-dC). Type of test: binding. As to conditions: in the presence of 10 μg/mL poly(dI-dC), FIG. 9; read-out: KD of peptide and TAR-RNA by gel shift assay. The method, then:
The fluorescein-labeled TAR RNA (F-TAR-RNA) was purchased from Sigma. F-TAR-RNA was dissolved in diethyl pyrocarbonate treated H2O to give a 50 μM solution. Binding assays were performed at room temperature. Peptide and RNA were incubated in pH 7.4 buffer (10 μL) containing Tris-HCl (50 mM), KCl (50 mM), poly-dIdC (10 μg/mL), 2% glycerol, and Triton X-100 (0.05%). The F-TAR-RNA concentration was 100 nM. The samples were analyzed by loading into 12% native polyacrylamide gels in […] and electrophoresis was performed with 140 V at room temperature. Dried gels were scanned by the Typhoon TRIO+ Variable Mode Imager. Bands corresponding to the free and bound RNA were quantified using ImageQuant software. The apparent dissociation constants were globally derived from the quantified data assuming a 1:1 binding stoichiometry.

“6-carboxyfluorescein-βAla-Tyr-Gly-Agb-Lys-Lys-Agb-Agb-Gln-Agb-Agb-Agb-NH2 [Flu-AgbTat]”: the “Uptake into cells compared to Flu-ArgTat and Flu-AghTat” value in the test with Jurkat cells [1] (7 μM peptide, 15 minutes, 37° C., fetal bovine serum, FIG. 2A) is 3 times. Besides, the “Cellular uptake seen in fluorescence microscopy images” value in the test with Jurkat cells [2] is “Obvious cellular uptake”.
With “6-carboxyfluorescein-βAla-Tyr-Gly-Agh-Lys-Lys-Agh-Agh-Gln-Agh-Agh-Agh-NH2 [Flu-AghTat]”, the “Cellular uptake compared to Flu-ArgTat” value in the test with Jurkat cells [1] (concentrations higher than 7 μM, FIG. 2B) was “more cellular uptake”. In addition, the “Cellular uptake seen in fluorescence microscopy images” value in the test with Jurkat cells [2] is “Obvious cellular uptake”.
For “6-carboxyfluorescein-βAla-Tyr-Gly-Arg-Lys-Lys-Arg-Arg-Gln-Arg-Arg-Arg-NH2 [Flu-ArgTat, reference compound]”, the Mean fluorescence intensity came to 2170 ± 1692 a.u in the test on Jurkat cells [1] (30 μM peptide), 5258 ± 2006 a.u in the test with Jurkat cells [1] (60 μM peptide), 7042 ± 1475 a.u in the test with Jurkat cells [1] (90 μM peptide) and 8628 ± 3585 a.u with Jurkat cells [1] (120 μM peptide). Further, in the test with Jurkat cells [2], the “Cellular uptake seen in fluorescence microscopy images” value is “Obvious cellular uptake”.
For the substance “6CF-βAla-Tyr-Gly-Arg-Lys-Lys-Arg-Arg-Gln-Arg-Arg-Cit-NH2 [6CF-Tat-Cit57]”, the Mean fluorescence intensity with Jurkat cells [1] (30 μM peptide) worked out at 465 ± 72 a.u; with Jurkat cells [1] (60 μM peptide) it was 1696 ± 167 a.u; in the test on Jurkat cells [1] (90 μM peptide), 4031 ± 377 a.u; with Jurkat cells [1] (120 μM peptide), 4964 ± 811 a.u. The “Cellular uptake seen in fluorescence microscope images” value in the test on Jurkat cells [2] is “significant cellular uptake”.
On to “6CF-βAla-Tyr-Gly-Arg-Lys-Lys-Arg-Arg-Gln-Arg-Cit-Arg-NH2 [6CF-Tat-Cit56]”, for which the Mean fluorescence intensity in the test with Jurkat cells [1] (30 μM peptide) was determined as 429 ± 95 a.u; in the test on Jurkat cells [1] (60 μM peptide), 2305 ± 249 a.u; with Jurkat cells [1] (90 μM peptide), 6094 ± 792 a.u; with Jurkat cells [1] (120 μM peptide), 11617 ± 1339 a.u. In addition, the “Cellular uptake seen in fluorescence microscope images” value in the test with Jurkat cells [2] is on record as “significant cellular uptake”.
For the substance “6CF-βAla-Tyr-Gly-Arg-Lys-Lys-Arg-Arg-Gln-Cit-Arg-Arg-NH2 [6CF-Tat-Cit55]”, the Mean fluorescence intensity turned out to be 793 ± 267 a.u in the test with Jurkat cells [1] (30 μM peptide), 5750 ± 134 a.u in the test on Jurkat cells [1] (60 μM peptide), 9090 ± 707 a.u with Jurkat cells [1] (90 μM peptide) and 10152 ± 787 a.u in the test with Jurkat cells [1] (120 μM peptide). In addition, the “Cellular uptake seen in fluorescence microscope images” value in the test with Jurkat cells [2] was “significant cellular uptake”.
“6CF-βAla-Tyr-Gly-Arg-Lys-Lys-Arg-Cit-Gln-Arg-Arg-Arg-NH2 [6CF-Tat-Cit53]”: the Mean fluorescence intensity in the test with Jurkat cells [1] (30 μM peptide) turned out to be 429 ± 19 a.u; in the test with Jurkat cells [1] (60 μM peptide), 3417 ± 288 a.u; with Jurkat cells [1] (90 μM peptide), 6499 ± 109 a.u; in the test with Jurkat cells [1] (120 μM peptide), 10861 ± 1096 a.u. Moreover, the “Cellular uptake seen in fluorescence microscope images” value in the test on Jurkat cells [2] is reported as “significant cellular uptake”.
On the same counts, the results for “6CF-βAla-Tyr-Gly-Arg-Lys-Lys-Cit-Arg-Gln-Arg-Arg-Arg-NH2 [6CF-Tat-Cit52]” are 1221 ± 116 a.u, 5332 ± 612 a.u, 10040 ± 726 a.u, 12378 ± 972 a.u and “significant cellular uptake”.
As to “6CF-βAla-Tyr-Gly-Cit-Lys-Lys-Arg-Arg-Gln-Arg-Arg-Arg-NH2 [6CF-Tat-Cit49]”, the Mean fluorescence intensity was found to be 1791 ± 555 a.u in the test with Jurkat cells [1] (30 μM peptide), 6452 ± 740 a.u in the test with Jurkat cells [1] (60 μM peptide), 13284 ± 1441 a.u in the test with Jurkat cells [1] (90 μM peptide) and 15784 ± 1567 a.u with Jurkat cells [1] (120 μM peptide). Besides, the “Cellular uptake seen in fluorescence microscope images” value in the test on Jurkat cells [2] is listed as “significant cellular uptake”.
In the case of “Ac-Tyr-Gly-Arg-Lys-Lys-Arg-Arg-Gln-Arg-Arg-Agp-NH2 [Ac-Agp57-Tat-NH2]”, the Kd at HIV TAR RNA was determined as 56 ± 12 nM.
